{"source": "patent US11213597B2", "about": "“Kinin-based theranostic probes for solid cancers and uses thereof” (SOCIETE DE COMMERCIALISATION DES PRODUITS DE LA RECHERCHE …, priority 2015, dated 2022)", "key": {"F98 GBM [1]": {"tested_on": "F98 GBM", "test": "small animal PET imaging, Fischer/F98 malignant glioma model", "format": "in vivo, rat", "conditions": "intravenous, F98 GBM-bearing rats", "procedure": "The F98 GBM cell line (#CRL-2397) was purchased from American Type Culture Collection (ATCC). Cells were cultured as monolayers in Dulbecco's modified Eagle medium (DMEM) supplemented with 10% fetal bovine serum (FBS) and 1% penicillin-streptomycin mixture at 37° C. in a humidified 5% CO2/95% air incubator. The procedure of F98 glioma cell implantation was similar to that used in our previous studies (Côté et al., 2010, Neuropeptides, 44:177-185). […] All tumor transplantations were successful as determined by histology and/or MRI.\nPET scans were performed using a LabPET8 (Gamma Medica Inc.) small animal scanner with an axial field of view of 8 cm. […] PET scans were assessed 1 h and 20 h post-injections. […] Regions of interest were traced for tumor, normal brain, heart, liver, kidney, and muscle, and the activity in each organ was measured and reported to the injected dose for percentages calculation. […] In vivo testing of the novel kinin PET radiotracers was also assessed in a model of tumor metastasis induced by the intracardiac injection of 4T1/luc (bioluminescent) mouse breast cancer cells under ultrasound guidance."}, "cancer cells": {"tested_on": "cancer cells", "test": "cytotoxicity of B1R radionuclide therapy by clonogenic assays", "format": "cell-based", "conditions": "non-radioactive surrogate up to 10 μM", "procedure": "Cytotoxicity of B1R radionuclide therapy was assessed in cancer cells by clonogenic assays. […] Then, media were removed and colonies fixed/stained with 0.5% methylene blue in 50% ethanol, rinsed with tap water and air dried. Colony counting was performed manually or automatically using the Image Pro Plus 5.1."}, "[2]": {"tested_on": "brain tumor cells and other types of cancer cells (e.g., breast and prostate)", "test": "cellular and nuclear uptake of Cu (ICP-MS / radiometric assays)", "format": "cell-based", "procedure": "Cellular uptake profiles of non-radioactive Cu-acetate and Cu-labeled peptides in B1R expressing rat F98 GBM cells were evaluated by ICP-MS analysis. Brain cancer cells were allowed to grow to confluence on a 10-cm dish. Cells were then incubated with Cu-acetate or Cu-labeled peptides (500 nM) in FBS free-DMEM at 37° C. for 15 min or 1, 4, or 20 h, respectively. For determination of nonspecific internalization, one set of dishes was incubated with the potent B1R antagonist R-954 (1 μM) at 37° C. for 10 min to block B1R prior to incubation with Cu-labeled peptides. At each time point, media was collected, and cells were acid-washed once (50 mM acetic acid/250 mM NaCl pH 2.5), to remove surface-bound fractions, and then washed twice with Phosphate-buffered saline (PBS, pH 7.4). Thereafter, cells were trypsinized, collected by centrifugation and gently washed with Hank's buffered salt solution (HBSS). Cells were solubilized in 1/1 nitric acid/30% H2O2 solution, and the amount of Cu was determined by ICP-MS. […]\nIrradiating DNA is an effective way to injure and eventually kill cells. […] Pelleted cell-free nuclei were resuspended in 0.5 ml of hypotonic buffer, counted and finally solubilized in 1/1 nitric acid/30% H2O2 solution. […] Quantification of Cu content in the nuclear fractions was done by ICP-MS."}, "[3]": {"conditions": "rat", "procedure": "For in vivo stability studies in normal healthy rats and mice, peptide was reconstituted in PBS and 20-30 MBq (500-800 μCi; 100 μL) were injected through the tail vein to isoflurane anesthetized animals. At different times post-injection, blood and urine were collected, centrifuged and followed by a protein precipitation with acetonitrile. Samples were analyzed by UPLC using a C-18 column and a radio-detector. Analysis and retention times were compared to the original radiolabeled peptide to monitor peptide cleavage."}, "F98 GBM [4]": {"tested_on": "F98 GBM", "test": "peptide receptor radionuclide therapy (PRRT), survival of F98 GBM-bearing rats", "format": "in vivo", "conditions": "single intravenous treatment 7.5 mCi/rat, day 10 post-inoculation"}, "F98 GBM [5]": {"tested_on": "F98 GBM", "test": "ex vivo biodistribution in F98 GBM-bearing rats", "design": "species or system rat", "procedure": "Ex vivo biodistribution studies were performed by injecting 74 MBq (2 mCi/rat; 100 μL of ^64Cu-NOTA-βAla-Orn^1-Arg^2-Oic^3-Pro^4-Gly^5-(αMe)Phe^6-Ser^7-DβNal^8-Ile^9-OH (SEQ ID NO: 6) to isoflurane-anesthetized normal (non-implanted) or F98 bearing rats via the caudal vein. After 1 and 20 h post-injection, the animals were euthanized by CO2 inhalation. Organs of interest were further collected, weighed, and measured in a gamma-counter (Cobra II auto-gamma counter, Packard, Minn.). The results were expressed as percentage of the injected dose per gram of tissue (% ID/g). Specificity of brain tumor uptake of B1R radiotracers was determined by pre-administration of 1 mg/kg of R954 peptide (5 min prior the injection of the radiolabelled peptide) and using sham-operated contralaterals. Animals bearing B1R target knockdowns were also employed to further support specificity of brain tumor uptake. Experiments were realized with a minimum of 3 rats per group."}, "4T1/luc metastases": {"tested_on": "4T1/luc metastases", "test": "PET and bioluminescence imaging, 4T1/luc mouse mammary tumor metastasis model", "format": "in vivo", "conditions": "4T1/luc mouse model", "procedure": "PET scans were performed using a LabPET8 (Gamma Medica Inc.) small animal scanner with an axial field of view of 8 cm. F98 GBM bearing rats were injected with 74 MBq (2 mCi; 100 μL) of novel ^64Cu radiolabeled B1R peptides (agonist or antagonist) with via the caudal vein under isoflurane anesthesia. PET scans were assessed 1 h and 20 h post-injections. […] The images were reconstructed by a three dimensional MLEM algorithm implementing an analytically derived system matrix (Selivanov et al., 2000, Nuclear Science, IEEE Transactions on, 47: 1168-1175). Regions of interest were traced for tumor, normal brain, heart, liver, kidney, and muscle, and the activity in each organ was measured and reported to the injected dose for percentages calculation. […] In vivo testing of the novel kinin PET radiotracers was also assessed in a model of tumor metastasis induced by the intracardiac injection of 4T1/luc (bioluminescent) mouse breast cancer cells under ultrasound guidance."}, "[6]": {"tested_on": "human solid tumors (e.g., brain and prostate) expressing naturally-occurring native B1R", "test": "PET imaging of solid tumors expressing native B1R (LN-CaP tumor-bearing nude mouse, F98)", "format": "in vivo", "procedure": "FIGS. 4A-C illustrate in vitro cell uptake and anticancer activity of ^64Cu-NOTA-βAla-Orn^1-Arg^2-Oic^3-Pro^4-Gly^5-(αMe)Phe^6-Ser^7-DβNal^8-Ile^9-OH; ^64Cu-NOTA-B1RA) (SEQ ID NO: 6) in human prostate cancer cells (PC3 and LN-CaP). Cell uptake of ^64Cu-Nota-B1RA (in the presence or not of competitor R954) in PC3 cells measured at 20 h post-treatment by radiometric assays (A). Dose-dependent antiproliferative effects of ^64Cu-acetate and ^64Cu/Nota-B1RA on PC3 cells (B) and LN-CaP cells (C), assessed by clonogenic assays. FIG. 4 D illustrates the molecular imaging of prostate cancer with ^64Cu/Nota-B1RA. PET images of LN-CaP tumor-bearing nude mouse obtained after injection of 64Cu/Nota-B1RA (9 MBq) at 0.5 h post-injection (p.i.). […] FIG. 4F confirms the immunohistochemical (IHC) overexpression of B1R in tumoral tissues of LNCaP-bearing mice (blackiste dark-color).\nFIGS. 5A-C illustrate in vitro cellular/nuclear uptake and anticancer activity of ^64Cu-NOTA-βAla-Orn^1-Arg^2-Oic^3-Pro^4-Gly^5-(αMe)Phe^6-Ser^7-DβNal^8-Ile^9-OH (Cu/Nota-B1RA) (SEQ ID NO: 6) in F98 GBM cells. Cell uptake and nuclear localization of non-radioactive, free Cu and Cu/Nota-B1RA in F98 glioma cells measured at 20 h post-treatment by ICP-MS (A). Dose-dependent antiproliferative effects of ^64Cu-acetate, ^64Cu/Nota-B1RA on F98 wildtype (B) or shRNA-B1R knockdown F98 cells (C) using clonogenic assays. […]"}, "human B1R": {"biological_target": "T1, human B1R (Homo sapiens, UniProt P46663)", "T1 construct": "It particularly expresses both kinin B1R and B2R at physiological densities; from tissue; host or cells: isolated human umbilical vein", "T1 sequence (P46663 1-353)": "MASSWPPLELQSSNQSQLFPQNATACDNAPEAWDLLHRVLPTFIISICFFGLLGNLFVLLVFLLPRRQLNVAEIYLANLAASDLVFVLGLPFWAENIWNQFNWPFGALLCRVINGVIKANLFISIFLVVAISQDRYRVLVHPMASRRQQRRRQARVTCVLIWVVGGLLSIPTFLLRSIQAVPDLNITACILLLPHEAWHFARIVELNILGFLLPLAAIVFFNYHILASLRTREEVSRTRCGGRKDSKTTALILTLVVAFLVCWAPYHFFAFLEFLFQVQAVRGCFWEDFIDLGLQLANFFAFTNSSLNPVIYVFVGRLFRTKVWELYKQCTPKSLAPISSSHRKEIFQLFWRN", "test": "human bioassay using isolated human umbilical veins, B1R", "format": "cell-based", "conditions": "versus the βAla-linked compound", "excerpt": "The apparent affinity constants (or potency) of kinin agonist and antagonist analogues for human B1R were estimated by in vitro human bioassay using isolated human umbilical veins (Gobeil et al., 1996, supra; Côté et al., 2009, supra). […] It particularly expresses both kinin B1R and B2R at physiological densities. Apparent affinities of peptides were defined in terms of EC50 (pD2) values for agonists and IC50 values for antagonists."}}, "note": "Where a SMILES comes first, the peptide text is derived from it. [ ]: non-standard residue; d: D form. The star is where a group is joined. ξ: configuration not given here. NOTA = O=C(O)CN1CCN(CC(=O)O)CCN(CC(=O)*)CC1; Oic = O=C(O)[C@@H]1C[C@@H]2CCCC[C@@H]2N1; d2Nal = N[C@H](Cc1ccc2ccccc2c1)C(=O)O; αMeF = C[C@](N)(Cc1ccccc1)C(=O)O; ξαMeF = CC(N)(Cc1ccccc1)C(=O)O; Orn = NCCC[C@H](N)C(=O)O; βAla = NCCC(=O)O"}
{"molecule": "^64Cu-NOTA-βAla-DLys^1-Arg^2-Pro^3-Pro^4-Gly^5-Phe^6-Ser^7-Pro^8-DPhe^9-OH (AKRPPGFSPF; 64Cu-NOTA-betaAla N-terminal; D-Lys1, D-Phe9; SITE (1)...(1) beta-alanine; SITE (2)...(2) D-lysine; SITE (10)...(10) D-phenylalanine)", "values": [{"measurement": "detection of brain tumors by μPET", "setting": "F98 GBM [1]", "result": "properly detected relatively small brain tumors"}]}
{"molecule": "CC[C@H](C)[C@H](NC(=O)[C@@H](Cc1ccc2ccccc2c1)NC(=O)[C@H](CO)NC(=O)C(C)(Cc1ccccc1)NC(=O)CNC(=O)[C@@H]1CCCN1C(=O)[C@@H]1C[C@@H]2CCCC[C@@H]2N1C(=O)[C@H](CCCNC(=N)N)NC(=O)[C@H](CCCN)NC(=O)CCNC(=O)CN1CCN(CC(=O)O)CCN(CC(=O)O)CC1)C(=O)O", "note": "(stereo partly shown) [Cu-NOTA-βAla-Orn^1-Arg^2-Oic^3-Pro^4-Gly^5-(αMe)Phe^6-Ser^7-DβNal^8-Ile^9-OH] ({NOTA-βAla}-[Orn]R[Oic]PG[ξαMeF]S[d2Nal]I-OH; N-terminus assumed)", "values": [{"measurement": "anticancer activity / therapeutic efficacy", "setting": "cancer cells", "result": "not seen"}]}
{"molecule": "^64Cu-NOTA-βAla-Orn^1-Arg^2-Oic^3-Pro^4-Gly^5-(αMe)Phe^6-Ser^7-DβNal^8-Ile^9-OH ({NOTA}-[βAla][Orn]R[Oic]PG[αMeF]S[d2Nal]I-OH; also: 64Cu complexed by NOTA)", "values": [{"measurement": "anticancer activity / therapeutic efficacy", "setting": "cancer cells", "result": "enhanced anticancer activity"}, {"measurement": "cellular localization", "setting": "[2]", "result": "localize both in cytoplasmic and nuclear compartment"}, {"measurement": "in vivo stability", "setting": "[3]", "result": "no degradation sign"}, {"measurement": "elimination (pharmacokinetics)", "setting": "[3]; in vivo", "result": "largely eliminated by the kidneys in urine as intact form"}, {"measurement": "survival with PRRT", "setting": "F98 GBM [4]", "result": "tendency of prolonging survival"}, {"measurement": "brain tumor uptake, ex vivo biodistribution", "setting": "F98 GBM [5]", "result": "significant amount of brain tumor uptake"}, {"measurement": "PET signal localization versus bioluminescent signals", "setting": "4T1/luc metastases", "result": "colocalized with bioluminescent signals from (bone) metastases"}, {"measurement": "detection of brain tumors by μPET", "setting": "F98 GBM [1]", "result": "properly detected relatively small brain tumors"}, {"measurement": "non-invasive detection of solid tumors", "setting": "[6]", "result": "capacity to identify or detect non-invasively and rapidly human solid tumors"}]}
{"molecule": "CC[C@H](C)[C@H](NC(=O)[C@@H](Cc1ccc2ccccc2c1)NC(=O)[C@H](CO)NC(=O)C(C)(Cc1ccccc1)NC(=O)CNC(=O)[C@@H]1CCCN1C(=O)[C@@H]1C[C@@H]2CCCC[C@@H]2N1C(=O)[C@H](CCCNC(=N)N)NC(=O)[C@H](CCCN)NC(=O)CN1CCN(CC(=O)O)CCN(CC(=O)O)CC1)C(=O)O", "note": "(stereo partly shown) [Cu-NOTA-Orn^1-Arg^2-Oic^3-Pro^4-Gly^5-(αMe)Phe^6-Ser^7-DβNal^8-Ile^9-OH] ({NOTA}-[Orn]R[Oic]PG[ξαMeF]S[d2Nal]I-OH; N-terminus assumed)", "values": [{"measurement": "decrease in affinity to hB1R in absence of linker", "setting": "human B1R", "result": 10, "unit": "fold"}]}
{"molecule": "CC(=O)[O-].CC(=O)[O-].[64Cu+2]", "note": "[^64Cu-acetate, reference compound]", "values": [{"measurement": "anticancer activity / therapeutic efficacy", "setting": "cancer cells", "result": "not seen"}]}
